# Test results from PubChem BioAssay AID488801 (NMMLSC, 2010).
# The source made the active and inactive calls.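 Rule for the calls: active = EC50 at or below 33 microM; inactive = the rest.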
# Molecular target: Ammonium transporter MEP2 (Saccharomyces cerevisiae (strain ATCC 204508 / S288c)) (UniProt P41948)
# Assay: yeast MEP2-GFP fusion level changes, TOR pathway – flow cytometry, KU SAR set, S. cerevisiae, dose response (AID 488801)
# Conditions: flow cytometry MCF, 3 h
# Ammonium transporter MEP2 (Saccharomyces cerevisiae (strain ATCC 204508 / S288c)), sequence (P41948 whole entry, looked up, the tested form may be a part): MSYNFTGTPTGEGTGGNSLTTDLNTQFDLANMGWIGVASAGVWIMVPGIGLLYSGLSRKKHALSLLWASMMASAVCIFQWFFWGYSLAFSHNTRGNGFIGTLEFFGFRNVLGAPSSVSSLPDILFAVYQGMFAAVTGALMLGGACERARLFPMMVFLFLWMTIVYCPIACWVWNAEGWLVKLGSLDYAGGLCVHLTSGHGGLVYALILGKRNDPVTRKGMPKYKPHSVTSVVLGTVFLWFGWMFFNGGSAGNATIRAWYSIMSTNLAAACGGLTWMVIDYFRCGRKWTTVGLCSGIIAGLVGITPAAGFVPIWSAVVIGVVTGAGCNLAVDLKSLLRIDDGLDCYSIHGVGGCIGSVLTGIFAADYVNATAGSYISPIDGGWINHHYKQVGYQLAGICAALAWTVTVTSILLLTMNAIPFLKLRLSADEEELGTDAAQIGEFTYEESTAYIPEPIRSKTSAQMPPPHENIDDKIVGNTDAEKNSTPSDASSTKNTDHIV
row,Structure (SMILES),EC50
1,Cc1ccc(/C=C2/C(=O)ON=C2c2ccccc2)o1,inactive
2,C/C(=N\NC(=O)c1ccc(C(C)(C)C)cc1)c1ccccn1,inactive
3,O=C(Oc1c(Cl)cc(Cl)c2cccnc12)c1cccc([N+](=O)[O-])c1,inactive
4,C/C(=N\NC(=O)c1cccc(Br)c1)c1ccccn1,inactive
5,CCN(CC)C(=O)Oc1ccnc2cc(Cl)ccc12,inactive
6,Cc1ccc(C(c2cc(Cl)c3cccnc3c2O)N2CCN(C)CC2)cc1 (stereo unspecified),inactive
7,O=C(Oc1ccnc2cc(Cl)ccc12)N1CCCCCC1,3.97 µM
8,CN1CCN(C(c2ccc(C(F)(F)F)cc2)c2ccc3cccnc3c2O)CC1 (stereo unspecified),inactive
9,Cc1cc(C(=O)Nc2nc(-c3ccccn3)cs2)ccc1[N+](=O)[O-],inactive
10,CSC1=NS(=O)(=O)c2c(C)nn(C)c2S1,inactive
11,O=C(Oc1c(Cl)cc(Cl)c2cccnc12)c1ccco1,inactive
12,Cc1ccc(S(=O)(=O)c2ncccc2[N+](=O)[O-])cc1,inactive
13,CNc1nc(N)c([N+](=O)[O-])c(Nc2cccc(F)c2)n1,15.8 µM
14,CNc1nc(N)c([N+](=O)[O-])c(NCC2CCCO2)n1 (stereo unspecified),inactive

# Continued, values first:
row,EC50,Structure (SMILES)
1,inactive,O=C(OCC(=O)N1CCN(C(=O)c2ccco2)CC1)c1cc(-c2cccc(Br)c2)nc2ccccc12
2,inactive,O=C(Nc1nc(-c2ccccn2)cs1)c1cc2ccccc2o1
3,inactive,O=C(Nc1nc(-c2ccccn2)cs1)C1COc2ccccc2O1 (stereo unspecified)
4,inactive,Nc1cc(Oc2cccc(Cl)c2)nc(NCc2ccccc2)n1
5,inactive,Nc1cc(Nc2cccc(F)c2)nc(NCc2ccccc2)n1
6,inactive,COc1ccc([N+](=O)[O-])c(S(=O)(=O)c2ccccc2)n1
7,2.72 µM,CNc1nc(N)c([N+](=O)[O-])c(Nc2cccc(Cl)c2)n1
